The results in this text go back to article PMC5819316, “Structural and Biochemical Characterization of BdsA from Bacillus subtilis WU-S2B, a Key Enzyme in the “4S” Desulfurization Pathway” (Frontiers in Microbiology, 2018).

One series has as its target T1, BdsA (Bacillus subtilis, UniProt Q8GRC7).
T1 construct: monomer 453 residues; homotetramer, ~220 kDa by gel filtration
The series can be described thus: X-ray crystallography, […] A, crystal soaking. The format is binding. As to conditions: crystals soaked in 1 mM FMN for 30 min, pH 5.5; one FMN per subunit, active site.

Series [1] deals with the molecule itself. The series can be described thus: SEC; Superdex-200 gel filtration in 10 mM Tris-HCl (pH 8.0), 100 mM NaCl; oligomeric state in solution from the elution volume (~220 kDa). (In general: In gel filtration, larger molecules generally elute earlier.)

For `Cc1cc2nc3c(=O)[nH]c(=O)nc-3n(C[C@H](O)[C@H](O)[C@H](O)COP(=O)(O)O)c2cc1C` [FMN], at BdsA, the “X-ray crystallography, 2.4 A, crystal soaking” value is recorded as “The structure of the tetrameric BdsA–FMN complex contains four FMN molecules”.

B1: DBT sulfone monooxygenase BdsA from Bacillus subtilis WU-S2B (enzyme)
chain: MAEQRQLHLAGFFSAGNVTHAHGAWRHVGATNGFLTGEFYKQIARTLERGKFDLLFLPDGLAIEDSYGDNLETGVGLGGQGAVALEPTSVIATMAAVTQRLGLGATVSTTYYPPYHVARVFATLDNLSDGRISWNVVTSLNDSEARNFGVDEHLEHDIRYDRADEFLEAVKKLWSSWSEDALLLDKVGGRFADPKKVQYVNHRGRWLSVRGPLQVPRSRQGEPVILQAGLSPRGRRFAGRWAEAVFSVSPNLDIMRAVYQDIKAHVAAAGRDPEQTKVFTAVMPVLGETEQVARERLEYLNSLVHPEVGLSTLSSHSGLNLSKYPLDTKFSDIVADLGDRHVPTMLQMFSAVAGGGADLTLAELGRRYGTNVGFVPQWAGTAEQIADQLISHFEAGAADGFIISPAYLPGIYEEFVDQVVPLLQQRGVFRTEYEGTTLREHLGLAHPEVGSIR
notes: BdsA (DBT sulfone monooxygenase), Bacillus subtilis WU-S2B; synthesized bdsA gene cloned into the NdeI and XhoI sites of pET-15b; each monomer is composed of 453 amino acids; in the crystal the N-terminus to Gln4 and Ser451 to the C-terminus are not visible; No removal of the His-tag is described; also called apo-BdsA; dibenzothiophene sulfone monooxygenase; source: E. coli BL21 (DE3), purified …
The term stoichiometry N denotes a count of units in the complex or per binding partner. As to B1, the “stoichiometry N” value in series [1] worked out at 4.
